The values that follow come from patent publication US20130236529A1, “COMPOSITION AND METHODS TO ENHANCE ANTI-OXIDATION, GUT FLORA AND IMMUNITY IN PETS” (FLAVITPURE, INC., priority 2012, published 2013).

In series [1] the test system is GSTM1. Conditions: microarray, in the presence of taxifolin; cited from earlier work.
Series [2] relates to NQO1. To be noted: microarray, in the presence of taxifolin; cited from earlier work.
The test system of series [3] is human lung embryonic fibroblasts (TIG-1). Conditions: TIG-1 cells; cited from earlier work.
The nature of series [4]: ORAC hydro antioxidant capacity assay. An excerpt: The majority of HAT-based assays apply a competitive reaction scheme, in which antioxidant and substrate compete for thermally generated peroxyl radicals through the decomposition of azo compounds. ORAC is an assay for the […] oxygen radical absorbance capacity. The ORAC hydro tests the capacity dihydroquercetin generated hydrogen atom transfer (HAT) to compete for thermally generated peroxyl radicals and hydroxyl radicals. For the latter it is necessary to use the ORAC assay test. Unlike electron transfer based assays that measure an antioxidant's reducing capacity, and the hat-based assays measure the hydrogen atom donating capacity. The hydrogen atom transfer is a key step in the radical chain reaction. Therefore, the hat-based assays are more relevant to the radical chain-breaking antioxidant capacity. Among all the hat-based assays, ORAC adopted an AUC (area under curve) technique to quantify antioxidant capacity. […] This approach unifies the lag time method and initial rate method, and it is particularly useful for food samples, which often contain multiple ingredients and have complex reaction kinetics. Therefore, the ORAC assay has been broadly applied in academics and the food and supplement industry as the method of choice to quantify antioxidant capacity. […]

The conditions of series [5]: relative to quercetin; cited from earlier work.
The conditions of series [6]: oxidation of 2′-deoxyguanosine, Fenton reaction catalyzed by copper; cited from earlier work.
The subject of series [7] is CYP2E1. To be noted: microarray, in the presence of taxifolin; cited from earlier work.
In series [8] the test system is umbilical vein endothelial (HUVE) cells. To be noted: cited from earlier work.

Take `O=C1c2c(O)cc(O)cc2O[C@H](c2ccc(O)c(O)c2)[C@H]1O` [Dihydroquercetin]: in series [1], the “expression of phase II detoxification enzyme GSTM1” value is given as “upregulated”. Also, the “expression of phase II detoxification enzyme NQO1” value in series [2] is recorded as “upregulated”. In addition, the 50% lethal concentration in series [3] was more than 300 µmol; in series [8], more than 200 µmol. The orachydro value in series [4] (per 420 mg capsule) is reported as ≥ 300 micromole of trolox equivalent per 420 mg capsule; in series [4] (per gram), ≥ 800 micromole trolox equivalent per gram. In addition, in series [5], the “times less mutagenic than quercetin” value is recorded as 400 times. Moreover, the pro-oxidant activity result in series [6] was “did not present pro-oxidant activity”. For the same molecule, the “expression of phase I detoxification enzyme CYP2E1” value in series [7] is “down regulated”.

As to catechin [reference compound], the pro-oxidant activity entry in series [6] is listed as “did not present pro-oxidant activity”.
